The structures appear in SMILES notation. ≈ marks a conversion by molar mass, not a printed value. Read-outs that look alike come from different tables or passages of the source.

One test has as its target fungal (fACC2) (UniProt Q00955). The following applies: read-out: fACC2 (in vitro ACC2 Inhibition Assay, IC50), ADP-Glo, 5 nM ACC2, 20 μM ATP, 20 μM acetyl-CoA.
The subject of another test is C. krusei. Nature of the test: Antifungal Activity Assay (broth microtiter MIC), C. krusei. The following applies: 3 replicates, MIC recorded at 48 h; for MIC: Pichia kudriavzevii, ATCC6258, 48 h, ATCC 6258, read-out: MIC, C. krusei ATCC 6258. The format is cell-based, Candida krusei. The procedure, abridged:
(§1)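 Broth microdilution per CLSI M27-A3 in RPMI 1640+MOPS, inoculum 2.5×10^3 CFU/mL final from overnight Sabouraud dextrose agar cultures at 35° C. Compounds diluted from DMSO stock to 128 μg/mL in water. MIC read visually versus growth control at 48 h.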

A further test concerns the target human (hACC2) (Homo sapiens, UniProt O00763). In words: In vitro ACC inhibition assay (ADP-Glo), hACC2. The format is biochemical. The following applies: 5 nM ACC2, 20 μM ATP, 20 μM acetyl-CoA. On the procedure:
The detailed procedure is as follows. […] 10 μL ADP glo reagent was added. […] 20 μL kinase detection reagent was added.

In another test the test system is C. albicans. In words: Antifungal Activity Assay (broth microtiter MIC), C. albicans. Format: cell-based, Candida albicans. The following applies: 3 replicates, MIC recorded at 48 h; for MIC: Candida albicans, ATCC90028, 48 h, ATCC 90028, read-out: MIC, C. albicans ATCC 90028. The essentials: as §1
For another test, the system named is C. parapsilosis. In words: Antifungal Activity Assay (broth microtiter MIC), C. parapsilosis. Format: cell-based, Candida parapsilosis. The following applies: 3 replicates, MIC recorded at 48 h; for MIC: Lodderomyces parapsilosis, ATCC22019, 48 h, ATCC 22019, read-out: MIC, C. parapsilosis ATCC 22019. The procedure, abridged: as §1

Chain of fungal (fACC2) (Q00955 whole entry): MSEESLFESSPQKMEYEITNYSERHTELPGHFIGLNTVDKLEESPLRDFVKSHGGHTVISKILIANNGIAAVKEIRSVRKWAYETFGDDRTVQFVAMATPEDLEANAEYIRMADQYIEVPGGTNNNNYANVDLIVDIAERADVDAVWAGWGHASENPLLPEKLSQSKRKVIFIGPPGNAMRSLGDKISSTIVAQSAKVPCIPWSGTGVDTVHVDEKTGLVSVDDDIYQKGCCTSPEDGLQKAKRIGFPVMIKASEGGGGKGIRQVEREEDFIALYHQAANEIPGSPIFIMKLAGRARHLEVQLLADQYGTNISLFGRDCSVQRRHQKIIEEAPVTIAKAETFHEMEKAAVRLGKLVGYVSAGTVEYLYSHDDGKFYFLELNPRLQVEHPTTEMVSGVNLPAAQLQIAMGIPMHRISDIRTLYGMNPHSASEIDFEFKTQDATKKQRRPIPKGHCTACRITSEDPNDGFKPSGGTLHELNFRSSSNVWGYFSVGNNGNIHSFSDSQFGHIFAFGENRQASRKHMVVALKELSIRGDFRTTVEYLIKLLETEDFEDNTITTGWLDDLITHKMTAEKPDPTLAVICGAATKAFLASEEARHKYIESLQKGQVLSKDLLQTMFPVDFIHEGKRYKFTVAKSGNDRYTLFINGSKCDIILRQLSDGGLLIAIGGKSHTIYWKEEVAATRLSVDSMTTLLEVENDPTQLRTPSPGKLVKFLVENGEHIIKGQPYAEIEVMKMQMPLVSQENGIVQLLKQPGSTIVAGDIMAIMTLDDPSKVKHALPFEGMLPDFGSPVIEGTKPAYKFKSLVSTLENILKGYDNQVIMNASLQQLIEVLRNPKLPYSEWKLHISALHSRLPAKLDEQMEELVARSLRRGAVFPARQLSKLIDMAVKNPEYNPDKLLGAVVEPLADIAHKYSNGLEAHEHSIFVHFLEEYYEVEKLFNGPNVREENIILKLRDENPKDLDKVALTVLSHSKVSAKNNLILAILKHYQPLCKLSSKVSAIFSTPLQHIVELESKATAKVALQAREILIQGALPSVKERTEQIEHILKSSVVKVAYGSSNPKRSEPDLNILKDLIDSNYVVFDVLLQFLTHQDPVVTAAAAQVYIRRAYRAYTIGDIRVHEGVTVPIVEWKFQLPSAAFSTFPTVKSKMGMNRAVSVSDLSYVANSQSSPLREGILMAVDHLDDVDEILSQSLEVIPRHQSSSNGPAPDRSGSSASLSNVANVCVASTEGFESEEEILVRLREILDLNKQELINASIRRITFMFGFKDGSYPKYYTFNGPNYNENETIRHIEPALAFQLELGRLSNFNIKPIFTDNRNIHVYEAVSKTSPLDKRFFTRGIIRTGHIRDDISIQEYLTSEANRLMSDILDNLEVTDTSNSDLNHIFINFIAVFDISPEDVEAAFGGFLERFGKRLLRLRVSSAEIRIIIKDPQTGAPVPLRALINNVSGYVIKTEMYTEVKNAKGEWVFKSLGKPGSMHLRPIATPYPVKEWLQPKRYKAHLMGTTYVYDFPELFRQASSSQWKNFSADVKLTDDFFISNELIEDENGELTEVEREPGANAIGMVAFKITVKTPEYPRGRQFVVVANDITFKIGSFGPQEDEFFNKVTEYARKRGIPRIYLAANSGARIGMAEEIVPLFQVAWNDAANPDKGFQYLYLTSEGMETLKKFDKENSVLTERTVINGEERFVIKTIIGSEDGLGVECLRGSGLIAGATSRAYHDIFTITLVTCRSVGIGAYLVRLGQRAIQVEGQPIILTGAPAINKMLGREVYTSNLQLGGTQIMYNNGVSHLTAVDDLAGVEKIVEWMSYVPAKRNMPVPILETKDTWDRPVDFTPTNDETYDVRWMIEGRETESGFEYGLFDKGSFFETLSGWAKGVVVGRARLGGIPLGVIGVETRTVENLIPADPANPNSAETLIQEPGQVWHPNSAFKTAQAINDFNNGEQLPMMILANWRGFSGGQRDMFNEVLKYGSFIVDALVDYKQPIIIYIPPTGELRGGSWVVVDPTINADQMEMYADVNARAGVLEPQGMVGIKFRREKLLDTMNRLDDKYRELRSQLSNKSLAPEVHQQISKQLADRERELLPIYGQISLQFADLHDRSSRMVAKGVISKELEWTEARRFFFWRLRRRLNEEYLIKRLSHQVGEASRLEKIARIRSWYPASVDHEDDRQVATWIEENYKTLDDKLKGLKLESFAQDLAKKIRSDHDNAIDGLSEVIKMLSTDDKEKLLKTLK
Chain of human (hACC2) (O00763 whole entry): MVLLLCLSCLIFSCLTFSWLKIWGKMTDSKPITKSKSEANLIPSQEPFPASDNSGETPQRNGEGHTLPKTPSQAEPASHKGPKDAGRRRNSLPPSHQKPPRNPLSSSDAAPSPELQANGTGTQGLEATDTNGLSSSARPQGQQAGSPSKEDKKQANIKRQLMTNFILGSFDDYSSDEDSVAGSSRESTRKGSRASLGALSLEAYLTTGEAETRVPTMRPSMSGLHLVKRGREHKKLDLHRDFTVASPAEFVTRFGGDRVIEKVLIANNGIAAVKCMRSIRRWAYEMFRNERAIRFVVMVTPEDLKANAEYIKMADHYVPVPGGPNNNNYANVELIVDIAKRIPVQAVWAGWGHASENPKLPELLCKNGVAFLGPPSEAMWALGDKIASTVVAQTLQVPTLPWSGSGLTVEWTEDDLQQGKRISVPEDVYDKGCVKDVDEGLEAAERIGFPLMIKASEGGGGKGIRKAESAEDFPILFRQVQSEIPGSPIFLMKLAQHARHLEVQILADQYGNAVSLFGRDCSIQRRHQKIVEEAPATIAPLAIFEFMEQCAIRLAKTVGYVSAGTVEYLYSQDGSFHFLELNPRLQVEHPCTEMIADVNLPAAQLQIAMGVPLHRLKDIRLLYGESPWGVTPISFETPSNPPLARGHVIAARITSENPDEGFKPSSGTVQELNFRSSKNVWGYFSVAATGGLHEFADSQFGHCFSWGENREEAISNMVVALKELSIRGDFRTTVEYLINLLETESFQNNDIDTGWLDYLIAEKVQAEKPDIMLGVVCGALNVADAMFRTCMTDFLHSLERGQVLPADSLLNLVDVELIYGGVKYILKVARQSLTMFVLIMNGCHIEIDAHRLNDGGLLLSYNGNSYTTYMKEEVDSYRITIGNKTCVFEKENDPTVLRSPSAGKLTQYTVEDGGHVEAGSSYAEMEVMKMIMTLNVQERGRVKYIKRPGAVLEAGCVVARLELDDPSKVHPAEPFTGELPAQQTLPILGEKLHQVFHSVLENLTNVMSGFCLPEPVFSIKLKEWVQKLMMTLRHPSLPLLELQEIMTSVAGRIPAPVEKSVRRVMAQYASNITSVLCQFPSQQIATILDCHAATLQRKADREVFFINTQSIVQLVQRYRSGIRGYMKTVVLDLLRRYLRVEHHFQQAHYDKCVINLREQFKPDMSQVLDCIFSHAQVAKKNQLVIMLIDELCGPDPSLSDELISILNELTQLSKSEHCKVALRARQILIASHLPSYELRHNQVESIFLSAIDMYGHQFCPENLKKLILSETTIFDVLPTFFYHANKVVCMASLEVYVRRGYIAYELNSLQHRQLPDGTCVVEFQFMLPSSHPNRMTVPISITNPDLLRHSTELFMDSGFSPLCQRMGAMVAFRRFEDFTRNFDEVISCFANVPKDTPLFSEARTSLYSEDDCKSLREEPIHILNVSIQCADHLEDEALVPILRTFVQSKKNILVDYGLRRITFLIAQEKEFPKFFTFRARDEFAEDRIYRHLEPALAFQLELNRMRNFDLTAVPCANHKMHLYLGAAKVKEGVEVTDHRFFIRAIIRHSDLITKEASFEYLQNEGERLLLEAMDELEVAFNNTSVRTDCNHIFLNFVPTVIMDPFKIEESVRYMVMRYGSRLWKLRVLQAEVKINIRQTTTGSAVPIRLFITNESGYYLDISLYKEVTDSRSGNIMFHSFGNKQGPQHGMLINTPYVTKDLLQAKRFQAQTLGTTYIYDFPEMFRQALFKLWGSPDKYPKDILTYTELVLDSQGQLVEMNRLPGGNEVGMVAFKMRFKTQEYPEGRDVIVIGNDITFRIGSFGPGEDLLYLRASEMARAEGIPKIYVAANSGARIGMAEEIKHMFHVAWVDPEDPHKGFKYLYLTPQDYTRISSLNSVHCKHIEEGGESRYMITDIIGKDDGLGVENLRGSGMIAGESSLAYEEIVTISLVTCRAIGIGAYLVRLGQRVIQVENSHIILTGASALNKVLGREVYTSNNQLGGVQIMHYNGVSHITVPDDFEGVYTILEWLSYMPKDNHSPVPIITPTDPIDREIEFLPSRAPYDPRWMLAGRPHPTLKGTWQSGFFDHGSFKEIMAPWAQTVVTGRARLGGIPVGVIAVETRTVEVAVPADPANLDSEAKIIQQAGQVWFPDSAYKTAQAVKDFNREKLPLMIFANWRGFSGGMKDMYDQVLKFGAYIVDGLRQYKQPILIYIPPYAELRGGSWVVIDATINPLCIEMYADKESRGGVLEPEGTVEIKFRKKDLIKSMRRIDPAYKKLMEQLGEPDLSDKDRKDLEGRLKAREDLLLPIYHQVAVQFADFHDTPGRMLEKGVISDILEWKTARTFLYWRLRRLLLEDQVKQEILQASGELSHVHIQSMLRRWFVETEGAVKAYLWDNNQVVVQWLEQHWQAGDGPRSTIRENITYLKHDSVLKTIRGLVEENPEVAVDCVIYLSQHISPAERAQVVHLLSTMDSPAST

As for `COc1ccc(F)cc1[C@H](Cn1c(=O)n(C(C)(C)C(=O)OC(C)C)c(=O)c2c(C)c(-n3nccn3)sc21)OCCO` [Compound I-129], the IC50 at fungal (fACC2) (Table 2a) was 1 to 5 nM; on fungal (fACC2) (Table 2b, additional results) it was 1 to 5 nM; at human (hACC2) (Table 2a), 1 to 5 nM; on human (hACC2) (Table 2b, additional results), 1 to 5 nM. Besides, the minimum inhibitory concentration (MIC) was 0.25 to 1 µg/mL (≈ 0.424 to 1.7 µM) in the test with C. krusei (Table 3a); 0.25 to 1 µg/mL (≈ 0.424 to 1.7 µM) with C. krusei (Table 3b (additional results)); 1.1 to 2 µg/mL (≈ 1.87 to 3.39 µM) in the test on C. albicans (Table 3a); 1.01 to 2 µg/mL (≈ 1.71 to 3.39 µM) in the test on C. albicans (Table 3b (additional results)); 0.25 to 1 µg/mL (≈ 0.424 to 1.7 µM) with C. parapsilosis (Table 3a); above 4.01 µg/mL in the test with C. parapsilosis (Table 3b (additional results)).

As to `COCCCO[C@@H](Cn1c(=O)n(C(C)C(=O)NC(C)C)c(=O)c2c(C)c(-n3nccn3)sc21)c1cc(F)ccc1OC` (stereo partly shown) [Compound I-130], the IC50 was 0.4 to 1 nM at fungal (fACC2) (Table 2a); 0.3 to 1 nM at fungal (fACC2) (Table 2b, additional results); 10 to 40 nM on human (hACC2) (Table 2a); 10 to 40 nM at human (hACC2) (Table 2b, additional results). The MIC in the test with C. krusei (Table 3a) is 2.1 to 4 µg/mL (≈ 3.48 to 6.64 µM); with C. krusei (Table 3b (additional results)), 1.01 to 2 µg/mL (≈ 1.68 to 3.32 µM); in the test on C. albicans (Table 3a), 1.1 to 2 µg/mL (≈ 1.83 to 3.32 µM); in the test on C. albicans (Table 3b (additional results)), 2.01 to 4 µg/mL (≈ 3.34 to 6.64 µM); in the test on C. parapsilosis (Table 3a), 1.1 to 2 µg/mL (≈ 1.83 to 3.32 µM); with C. parapsilosis (Table 3b (additional results)) it was 1.01 to 2 µg/mL (≈ 1.68 to 3.32 µM).

Turning to `COc1ccc(F)cc1[C@H](Cn1c(=O)n(C(C)C(=O)NC(C)C)c(=O)c2c(C)c(-n3nccn3)sc21)OCCO` (stereo partly shown) [Compound I-131], the half-maximal inhibitory concentration (IC50) at fungal (fACC2) (Table 2a) was 0.4 to 1 nM; on fungal (fACC2) (Table 2b, additional results), 0.3 to 1 nM; on human (hACC2) (Table 2a), 5 to 10 nM; against human (hACC2) (Table 2b, additional results), 5 to 10 nM. Also, the MIC lay within 0.25 to 1 µg/mL (≈ 0.435 to 1.74 µM) in the test with C. krusei (Table 3a); 1.01 to 2 µg/mL (≈ 1.76 to 3.48 µM) in the test with C. krusei (Table 3b (additional results)); 1.1 to 2 µg/mL (≈ 1.91 to 3.48 µM) with C. albicans (Table 3a); 2.01 to 4 µg/mL (≈ 3.5 to 6.96 µM) with C. albicans (Table 3b (additional results)); 1.1 to 2 µg/mL (≈ 1.91 to 3.48 µM) in the test on C. parapsilosis (Table 3a); 1.01 to 2 µg/mL (≈ 1.76 to 3.48 µM) in the test on C. parapsilosis (Table 3b (additional results)).

Regarding `COCCO[C@@H](Cn1c(=O)n(C(C)(C)C(=O)NC(C)C)c(=O)c2c(C)c(-n3nccn3)sc21)c1ccccc1OC` [Compound I-133], the IC50 fell in the range of 1 to 5 nM at fungal (fACC2) (Table 2a); 1 to 5 nM on fungal (fACC2) (Table 2b, additional results); 5 to 10 nM at human (hACC2) (Table 2a); 5 to 10 nM at human (hACC2) (Table 2b, additional results). The MIC in the test on C. krusei (Table 3a) lay within 1.1 to 2 µg/mL (≈ 1.88 to 3.42 µM); in the test with C. krusei (Table 3b (additional results)) it was 0.25 to 1 µg/mL (≈ 0.428 to 1.71 µM); in the test on C. albicans (Table 3a) it was 1.1 to 2 µg/mL (≈ 1.88 to 3.42 µM); in the test with C. albicans (Table 3b (additional results)) it was 1.01 to 2 µg/mL (≈ 1.73 to 3.42 µM); in the test on C. parapsilosis (Table 3a), 2.1 to 4 µg/mL (≈ 3.59 to 6.84 µM); in the test on C. parapsilosis (Table 3b (additional results)) it was 0.25 to 1 µg/mL (≈ 0.428 to 1.71 µM).

For the molecule `COCCO[C@@H](Cn1c(=O)n(C(C)(C)C(=O)NC2CCC2)c(=O)c2c(C)c(-n3nccn3)sc21)c1cc(F)ccc1OC` [Compound I-134], the IC50 at fungal (fACC2) (Table 2a) was 1 to 5 nM; at fungal (fACC2) (Table 2b, additional results), 1 to 5 nM; on human (hACC2) (Table 2a), 5 to 10 nM; against human (hACC2) (Table 2b, additional results), 5 to 10 nM. Also, the results for the “MIC, C. krusei ATCC 6258” value in the test on C. krusei (Table 3a) and with C. krusei (Table 3b (additional results)) were “B (MIC of 1.1-2.0 μg/mL)” and “B (MIC of 1.01-2.0 μg/mL)”, respectively. In addition, the “MIC, C. albicans ATCC 90028” value with C. albicans (Table 3a) is reported as “B (MIC of 1.1-2.0 μg/mL)”; in the test on C. albicans (Table 3b (additional results)), “D (MIC of >4.01 μg/mL)”. Also, the “MIC, C. parapsilosis ATCC 22019” value is “B (MIC of 1.1-2.0 μg/mL)” with C. parapsilosis (Table 3a) and “A (MIC of 0.25-1.0 μg/mL)” in the test with C. parapsilosis (Table 3b (additional results)).

For `COc1ccc(F)cc1[C@H](Cn1c(=O)n(C(C)(C)C(=O)NC(C)C)c(=O)c2c(C)c(-n3nccn3)sc21)OCCC(=O)O` [Compound I-135, 3-[(1R)-1-(5-fluoro-2-methoxyphenyl)-2-(5-methyl-3-[1-methyl-1-[(propan-2-yl)carbamoyl]ethyl]-2,4-dioxo-6-(2H-1,2,3-triazol-2-yl)-1H,2H,3H,4H-thieno[2,3-d]pyrimidin-1-yl)ethoxy]propanoic acid], the concentration for half-maximal inhibition (IC50) on fungal (fACC2) (Table 2a) was 1 to 5 nM; at fungal (fACC2) (Table 2b, additional results), 0.3 to 1 nM; on human (hACC2) (Table 2a), 10 to 40 nM; at human (hACC2) (Table 2b, additional results), 10 to 40 nM. Further, the MIC in the test on C. krusei (Table 3a) lay within 2.1 to 4 µg/mL (≈ 3.41 to 6.49 µM); with C. krusei (Table 3b (additional results)), 0.25 to 1 µg/mL (≈ 0.405 to 1.62 µM); in the test with C. albicans (Table 3a), 0.25 to 1 µg/mL (≈ 0.405 to 1.62 µM); with C. albicans (Table 3b (additional results)) it was 0.25 to 1 µg/mL (≈ 0.405 to 1.62 µM); with C. parapsilosis (Table 3a) it was 2.1 to 4 µg/mL (≈ 3.41 to 6.49 µM); in the test on C. parapsilosis (Table 3b (additional results)), 0.25 to 1 µg/mL (≈ 0.405 to 1.62 µM).

In the case of `COc1ccccc1[C@H](Cn1c(=O)n(C(C)(C)C(N)=O)c(=O)c2c(C)c(-n3nccn3)sc21)OCCC#N` [Compound I-137, 2-[1-[(2R)-2-(2-cyanoethoxy)-2-(2-methoxyphenyl)ethyl]-5-methyl-2,4-dioxo-6-(2H-1,2,3-triazol-2-yl)-1H,2H,3H,4H-thieno[2,3-d]pyrimidin-3-yl]-2-methylpropanamide], the concentration for half-maximal inhibition (IC50) on fungal (fACC2) (Table 2a) is 1 to 5 nM; at fungal (fACC2) (Table 2b, additional results), 1 to 5 nM; against human (hACC2) (Table 2a) it was 1 to 5 nM; against human (hACC2) (Table 2b, additional results) it was 1 to 5 nM. Further, the MIC in the test on C. krusei (Table 3a) was in the range of 2.1 to 4 µg/mL (≈ 3.91 to 7.44 µM); in the test with C. krusei (Table 3b (additional results)), 2.01 to 4 µg/mL (≈ 3.74 to 7.44 µM); with C. albicans (Table 3a), 2.1 to 4 µg/mL (≈ 3.91 to 7.44 µM); with C. albicans (Table 3b (additional results)) it was 2.01 to 4 µg/mL (≈ 3.74 to 7.44 µM); with C. parapsilosis (Table 3a), 2.1 to 4 µg/mL (≈ 3.91 to 7.44 µM); in the test with C. parapsilosis (Table 3b (additional results)), 2.01 to 4 µg/mL (≈ 3.74 to 7.44 µM).

(Values after patent publication US10800791B2, “Triazole ACC inhibitors and uses thereof” (Gilead Apollo, LLC, priority 2015, dated 2020).)
